Data set [1] is described as follows: PET analysis of the brain of the monkey after intravenous injection of labeled compound. Particulars: for stability against metabolism: concluded from monkey brain PET images; for initial brain uptake for 10 minutes after administration / elimination from the brain: monkey; for initial brain uptake for 10 minutes after administration: i.v. about 900 MBq, PET of brain, compared with conventional labeled compound. In kind it is in vivo. On the procedure:
The N-(2,5-dimethoxybenzyl)-N-[5-fluoro(4-[^11-C]methylphenoxy)-phenyl]acetamide ([^11C]-9) (^11C-labeled compound) produced in Example 9 was diluted with a mixed solution of physiological saline (3.6 ml), propylene glycol (0.3 ml), ethanol (0.1 ml), and a Tween 80 surfactant (0.1 ml), a radioactivity of about 900 MBq was introduced into a monkey through an intravenous injection, and a PET analysis of the brain of the monkey was performed using an animal PET scanner SHR-7700 manufactured by Hamamatsu Photonics K.K. ([^11C]-20).
[^11C]DAA1106 represented by the formula below was administered into a monkey in the same manner as in Example 10 except that [^11C]DAA1106 was used in place of the N-(2,5-dimethoxybenzyl)-N-[5-fluoro(4-[^11C]methylphenoxy)phenyl]acetamide ([^11C]-9) (labeled compound) produced in Example 9. The time radioactivity curves thereof are shown also in FIG. 3. […] [^11C]DAA1106 was separately produced according to WO 99/06353.
The 1-(2-chloro-5-methylphenyl)-N-methyl-(1-methylpropyl)-3-isoquinolinecarboxamide ([^11C]-20) (^11C-labeled compound) produced in Example 11 was diluted with a mixed solution of physiological saline (3.6 ml), propylene glycol (0.3 ml), ethanol (0.1 ml), and a Tween 80 surfactant (0.1 ml), a radioactivity of about 900 MBq was introduced into a monkey through an intravenous injection, and a PET analysis of [^11C]-20 in the brain of the monkey was performed using an animal PET scanner SHR-7700 manufactured by Hamamatsu Photonics K.K. The results are shown in FIG. 2.
[^11C]PK11195 represented by the formula below was administered into a monkey in the same manner as in Example 12 except that [^11C]PK11195 was used in place of the 1-(2-chloro-5-methylphenyl)-N-methyl-(1-methylpropyl)-3-isoquinolinecarbox amide ([^11C]-20) (labeled compound) produced in Example 11. […] [^11C]PK11195 was separately produced according to R. Camsonne et al., Journal of Labeled Compounds and Radiopharmaceuticals, 1984, 11, pp. 985-991.
The 10-O-p-[^11C]methylbenzylginkgolide B ([^11C]-29) (^11C-labeled compound) produced in Example 16 was diluted with a mixed solution of physiological saline (1.8 ml), propylene glycol (0.15 ml), ethanol (0.05 ml), a Tween 80 surfactant (0.05 ml), and intralipos (2.05 ml), a radioactivity of about 900 MBq was introduced into a monkey through an intravenous injection, and a PET analysis of [^11C]-29 in the brain of the monkey was performed using an animal PET scanner SHR-7700 manufactured by Hamamatsu Photonics K.K. The results are shown in FIG. 8.
[^18F]-30 represented by the formula below was administered into a monkey in the same manner as in Example 17 except that [^18F]-30 was used in place of the 10-O-p-[^11C]-methylbenzylginkgolide B ([^11C]-29) (^11C-labeled compound) produced in Example 16. […] [^18F]-30 was separately produced according to Makiko Suehiro, et al., J. Labelled Compd. Radiopharm., 47, pp. 485-491, 2004.

Data set [2] in a line: Proportion of brain SUV to blood SUV in rats, with and without brain blood perfusion. Format: in vivo. Particulars: for uptake by the parenchyma of the brain: concluded from pre- and post-perfusion data; for amount of tracer after the brain blood perfusion: physiological saline perfused via the heart before decapitation. The method, then:
As in Example 18, P-glycoprotein inhibitor cyclosporin A (CsA) was administered into rats in an amount of 25 mg/kg body weight of a rat 30 minutes prior to the administration of tracers. Thirty minutes after the administration of tracers, the rats were decapitated to remove the brains and measure the radioactivity. The figures show the results obtained from control rats into which no CsA was administered and from those into which CsA was administered in an amount of 25 mg/kg, expressed as a proportion of the brain SUV to the blood SUV. The SUV value in the present experiment is the average of the results obtained from two rats and expressed using a standard deviation. 10-O-p-[^11C]methylbenzylginkgolide B ([^11C]-29) (^11C-labeled compound) produced in Example 16 and [^18F]-30 were used as the tracers. […] FIG. 11 is from the measurement of radioactivity in the brain removed after decapitation, and FIG. 12 is from the measurement of radioactivity performed after flushing the blood out of the brain by infusing/perfusing physiological saline into the heart of a rat before decapitation.

The subject of a further data set is P-glycoprotein. As to the kind of experiment: Experiment for determining P-glycoprotein substrates (brain radioactivity in rats with or without cyclosporin A pre-administration). In kind it is in vivo. The conditions noted are these: for amount of tracer present in the brain upon pre-administration of CsA: CsA in different doses 30 min before tracer, brain removed 30 min after tracer. The method, then:
P-glycoprotein inhibitor cyclosporin A (CsA) was administered into rats 30 minutes prior to the administration of tracers. Thirty minutes after the administration of tracers, the rats were decapitated to remove the brains and measure the radioactivity. […] An SUV value in the present experiment is the average of the results obtained from 4 rats and expressed using a standard deviation.

The next data set deals with PAF receptor (Homo sapiens, UniProt P25105). Particulars: more strongly than natural ginkgolide B; cited from earlier work.
Chain of PAF receptor (P25105 whole entry): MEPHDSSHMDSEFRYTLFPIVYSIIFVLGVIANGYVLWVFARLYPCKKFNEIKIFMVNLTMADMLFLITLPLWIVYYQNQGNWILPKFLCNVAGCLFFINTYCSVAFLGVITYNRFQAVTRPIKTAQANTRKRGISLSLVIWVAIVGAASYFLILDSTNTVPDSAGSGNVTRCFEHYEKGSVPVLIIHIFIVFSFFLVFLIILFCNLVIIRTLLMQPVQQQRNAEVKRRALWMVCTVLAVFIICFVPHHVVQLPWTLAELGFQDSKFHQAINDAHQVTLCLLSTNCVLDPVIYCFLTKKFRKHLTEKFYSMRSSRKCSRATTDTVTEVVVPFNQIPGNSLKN
Where [3] appears, read: time radioactivity curves after i.v. administration.

Consider “10-O-p-[^11C]methylbenzylginkgolide B [[^11C]-29]”, for which, in data set [1], the stability against metabolism result is reported as “stable against metabolism” and the “initial brain uptake for 10 minutes after administration” value (“initial brain uptake for 10 minutes” below) is given as “increased initial brain uptake”. The “elimination from the brain” value in data set [1] (setting [3]) was “promptly eliminated from the brain with time”. Also, the “uptake by the parenchyma of the brain” value in data set [2] is recorded as “taken up by the parenchyma of the brain”. Also, the “amount of tracer after the brain blood perfusion” value in data set [2] (control and CsA 25 mg/kg) is given as “did not change”. Further, the “amount of tracer present in the brain upon pre-administration of CsA” value with P-glycoprotein was “changed in a volume-dependent manner”. For the same compound, the “SUV values relative to those of [^11C]verapamil” value with P-glycoprotein (brain SUV, [^11C]verapamil as standard reference) is “about 30%”.

For the compound `COc1ccc(OC)c(CN(C(C)=O)c2cc(F)ccc2Oc2ccc([11CH3])cc2)c1` [[^11C]-9, N-(2,5-dimethoxybenzyl)-N-[5-fluoro-(4[^11C]methylphenoxy)phenyl]acetamide], in data set [1], the stability against metabolism entry was “stable against metabolism” and the “initial brain uptake for 10 minutes” value was “greater initial brain uptake”. The brain uptake result in data set [1] (monkey brain PET) was “greater than that of the conventional labeled compound”.

`CCC(C)N(C)C(=O)c1cc2ccccc2c(-c2cc([11CH3])ccc2Cl)n1` (centres unmarked) [[^11C]-20, 1-(2-chloro-5-[^11C]methylphenyl)-N-methyl-(1-methylpropyl)-3-isoquinolinecarboxamide]: in data set [1], the stability against metabolism result is on record as “stable against metabolism” and the “initial brain uptake for 10 minutes” value is recorded as “greater initial brain uptake”. Further, the brain uptake entry in data set [1] (monkey brain PET) is listed as “greater than that of the conventional labeled compound”. Further, the “elimination from the brain” value in data set [1] (setting [3]) was “promptly eliminated from the brain with time”.

Take `COc1ccc(O[11CH3])c(CN(C(C)=O)c2cc(F)ccc2Oc2ccccc2)c1` [[^11C]DAA1106, reference compound]: in data set [1] (in vivo, iv), the “elimination from the brain” value is reported as “barely eliminated from the brain”.

Take `CCC(C)N([11CH3])C(=O)c1cc2ccccc2c(-c2ccccc2Cl)n1` (centres unmarked) [[^11C]PK11195, reference compound]: the “elimination from the brain” value in data set [1] (setting [3]) is “barely eliminated from the brain”.

Consider `C[C@@H]1C(=O)O[C@H]2[C@H](O)C34C5OC(=O)[C@@]3(OC3OC(=O)C(O)C34[C@H](C(C)(C)C)[C@@H]5[18F])[C@@]12O` (some centres unmarked) [[^18F]-30, reference compound], for which, in data set [1] (monkey brain PET), the blood-brain barrier penetration entry is recorded as “little blood-brain barrier penetration” and the brain uptake result is reported as “barely taken up by the brain”. Besides, the “proportion of the brain SUV to the blood SUV” value in data set [2] (30 min after tracer, control and CsA 25 mg/kg) is at most 0.04. Moreover, the “uptake by the parenchyma of the brain” value in data set [2] was “not taken up by the parenchyma of the brain”. Moreover, the “amount of tracer after the brain blood perfusion” value in data set [2] (control and CsA 25 mg/kg) was “washed away by the brain blood perfusion”. The “amount of tracer present in the brain upon pre-administration of CsA” value with P-glycoprotein is recorded as “did not change”.

`Cc1ccc(COC2C(=O)OC3O[C@@]45C(=O)OC6C[C@@H](C(C)(C)C)C32C64[C@@H](O)[C@@H]2OC(=O)[C@@H](C)[C@@]25O)cc1` (some centres unmarked) [compound 29, 10-O-p-methylbenzylginkgolide B]: on PAF receptor, the “binding with a PAF receptor relative to natural ginkgolide B” value is recorded as 10 times.

The record behind these values is patent US20110064662A1, “KIT FOR PRODUCING MOLECULAR PROBE FOR PET SCREENING FOR DRUG DISCOVERY” (RIKEN, priority 2007, published 2011).
